Where a chain is given by its changes, count along the chain named. Entries after “also recorded” stand apart in the source; their conditions may differ.
Columns and labels:
[1] = biological target: T1, ARH3^WT (Homo sapiens, UniProt Q9NX46); experiment: Isothermal titration calorimetry (ITC) of ADPR binding to ARH3^WT; conditions: for Kd / N (sites) / ΔG / ΔH / −TΔS: 25 °C, pH 7.5
T1 construct: we determined the structure of full-length ARH3 in complex with ADPR and Ca^2+; made in house
T1 sequence (Q9NX46 1-363): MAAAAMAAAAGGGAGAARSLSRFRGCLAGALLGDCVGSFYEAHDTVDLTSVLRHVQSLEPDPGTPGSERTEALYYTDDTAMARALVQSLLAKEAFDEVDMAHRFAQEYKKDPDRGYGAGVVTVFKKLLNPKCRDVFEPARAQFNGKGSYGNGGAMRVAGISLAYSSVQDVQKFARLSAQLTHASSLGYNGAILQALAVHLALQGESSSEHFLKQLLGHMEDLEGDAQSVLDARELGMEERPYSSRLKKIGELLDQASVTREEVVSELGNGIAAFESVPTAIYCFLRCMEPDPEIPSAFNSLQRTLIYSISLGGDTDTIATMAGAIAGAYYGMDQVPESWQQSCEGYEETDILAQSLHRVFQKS
Experimental: (§1) ITC experiments were performed at 25 °C in a buffer containing 150 mM NaCl, 100 mM Tris at pH 7.5, and 5 mM divalent metals (MgCl2, MnCl2, and CaCl2) or EDTA (Sigma–Aldrich). The WT or mutants of ARH3 were placed in a cell at 50 μM concentration, and ADPR was placed in the injection syringe at 660 μM concentration. Overall, 26 injections (10 μl per injection except for the first sample [5 μl]) were administered with an interval of 5 min between peaks to allow the baseline to be stabilized. […] The obtained plots were fitted with a single-site binding model in the Origin software package (MicroCal, Inc).

[2] = biological target: T2, ARH3^D77A (Homo sapiens, UniProt Q9NX46, D77A); experiment: Isothermal titration calorimetry (ITC) of ADPR binding to ARH3^D77A
T2 construct: His6 with PreScission protease cleavage site (N); made in house
T2 sequence (Q9NX46 1-363 D77A): T1 sequence (Q9NX46 1-363) with D77A
Experimental: as §1

[3] = biological target: T3, ARH3^D314A (Homo sapiens, UniProt Q9NX46, D314A); experiment: Isothermal titration calorimetry (ITC) of ADPR binding to ARH3^D314A
T3 construct: His6 with PreScission protease cleavage site (N); made in house
T3 sequence (Q9NX46 1-363 D314A): T1 sequence (Q9NX46 1-363) with D314A
Experimental: as §1

[4] = biological target: T4, ARH3 (Homo sapiens, UniProt Q9NX46); experiment: Gel-based PAR turnover assay (PARylated PARP1C substrate); type: biochemical; conditions: for effect on PAR hydrolysis by ARH3: WT ARH3 2 μM, 5 mM EDTA or Ca^2+, PARylated PARP1C, 1 h, 37 °C
T4 construct: we determined the structure of full-length ARH3 in complex with ADPR and Ca^2+; made in house
T4 sequence (Q9NX46 1-363): T1 sequence (Q9NX46 1-363)
Experimental: A gel-based PAR-turnover assay was performed to evaluate the enzymatic activity of ARH3^WT, ARH3^D77A, ARH3^D78A, ARH3^D314A, and ARH3^D316A, as described previously ([14], [40]). Briefly, 2 μM of the catalytic domain of human PARP1 (PARP1C; residues 375–1014) was auto-PARylated at 37 °C for 30 min in the presence of 2 μM DBD of PARP1 (residues 1–374), 2 μM double-stranded DNA, and 400 μM β-NAD^+ (Sigma) in a buffer containing 100 mM NaCl, 50 mM Tris (pH 7.5), 10 mM MgCl2, and 2 mM DTT. ARH3 proteins (in the presence of 5 mM EDTA, Mg^2+, or Ca^2+) with final concentrations of 2 μM were mixed with the PARylated PARP1C substrate, followed by incubation for 1 h in 37 °C. Reactions then were stopped by adding 4× SDS-loading dye (Bio-Rad) and visualized by Coomassie blue staining of SDS-polyacrylamide gels.

[5] = ARH3^D77A, 5 mM Mg^2+, 25 °C, pH 7.5
[6] = ARH3^D314A, 5 mM Mg^2+, 25 °C, pH 7.5

`Nc1ncnc2c1ncn2[C@@H]1O[C@H](COP(=O)(O)OP(=O)(O)OC[C@H]2OC(O)[C@H](O)[C@@H]2O)[C@@H](O)[C@H]1O` (stereo partly shown) [ADPR, ADP-ribose] was tested, and the Kd ([1]; 5 mM Ca^2+) was 7.81 ± 0.51 µM, the “N (sites)” value ([1]; 5 mM Ca^2+) was 1.18 ± 0.01 sites and the ΔG ([1]; 5 mM Ca^2+) was -6.96 kcal/M. For the same molecule, the ΔH ([1]; 5 mM Ca^2+) was -5.71 kcal/M, the “−TΔS” value ([1]; 5 mM Ca^2+) was -1.25 kcal/M and the Kd ([1]; 5 mM EDTA (metal-free)) was 80.7 ± 5.25 µM. For the same molecule, the “N (sites)” value ([1]; 5 mM EDTA) was 0.96 ± 0.08 sites, the ΔG ([1]; 5 mM EDTA) was -5.59 kcal/M and the ΔH ([1]; 5 mM EDTA) was -5.164 kcal/M. For the same molecule, the “−TΔS” value ([1]; 5 mM EDTA) was -0.42 kcal/M, the Kd ([1]; 5 mM Mg^2+) was 1.42 ± 0.07 µM and the “N (sites)” value ([1]; 5 mM Mg^2+) was 1.12 ± 0.01 sites. For the same molecule, the ΔG ([1]; 5 mM Mg^2+) was -7.98 kcal/M, the ΔH ([1]; 5 mM Mg^2+) was -9.29 kcal/M and the “−TΔS” value ([1]; 5 mM Mg^2+) was 1.31 kcal/M. For the same molecule, the Kd ([1]; 5 mM Mn^2+) was 0.83 ± 0.05 µM, the “N (sites)” value ([1]; 5 mM Mn^2+) was 1.09 ± 0.01 sites and the ΔG ([1]; 5 mM Mn^2+) was -8.29 kcal/M. For the same molecule, the ΔH ([1]; 5 mM Mn^2+) was -10.57 kcal/M, the “−TΔS” value ([1]; 5 mM Mn^2+) was 2.28 kcal/M and the “reduction in ADPR-binding affinity with Ca^2+ compared with Mg^2+” value ([1]; KD^Ca versus KD^Mg) was “about a sixfold reduction”. For the same molecule, the “increase in binding affinity with Mg^2+ versus metal-free enzyme (EDTA)” value ([1]; KD^Mg versus KD^EDTA) was “approximately 60 fold”, the “increase in ADPR-binding affinity compared with ARH3^WT” value ([2]; ARH3^D77A versus ARH3^WT, Mg^2+) was 23 fold and the Kd [2, 5] was 0.06 ± 0.01 µM. For the same molecule, the “N (sites)” value [2, 5] was 1.18 ± 0.01 sites, the ΔG [2, 5] was -9.87 kcal/M and the ΔH [2, 5] was -8.50 kcal/M. For the same molecule, the “−TΔS” value [2, 5] was -1.37 kcal/M, the “decrease in ADPR-binding affinity compared with ARH3^WT” value ([3]; ARH3^D314A versus ARH3^WT, Mg^2+) was 44 fold and the Kd [3, 6] was 62.9 ± 2.9 µM. The “N (sites)” value [3, 6] was 0.96 ± 0.04 sites, the ΔG [3, 6] was -5.74 kcal/M and the ΔH [3, 6] was -10.36 kcal/M. The “−TΔS” value [3, 6] was 4.61 kcal/M.

For `[Ca+2].[Cl-].[Cl-]` [Ca^2+, CaCl2], the “effect on PAR hydrolysis by ARH3” value [4] was “inhibit; also recorded: effectively suppresses PAR hydrolysis” and the “Ca2+-dependent inhibition of ARH3 PAR hydrolysis activity” value ([4]; in the presence of Mg2+ and increasing concentrations of Ca2+, 5 mM Ca2+) was “sufficient to effectively inhibit ARH3 activity”.

`O=C(O)CN(CCN(CC(=O)O)CC(=O)O)CC(=O)O` [EDTA] was tested, and the “effect on PAR hydrolysis by ARH3” value [4] was “inhibit; also recorded: effectively suppresses PAR hydrolysis”.
